Assay results as given in patent US20260130933A1, “PHARMACEUTICAL COMPOSITION FOR PREVENTION OR TREATMENT OF NEPHROPATHY AND/OR DIABETES MELLITUS, COMPRISING ENAVOGLIFLOZIN” (DAEWOONG PHARMACEUTICAL CO., LTD., priority 2022, published 2026).

Assay: Example 3: phase 3 trial, enavogliflozin 0.3 mg vs dapagliflozin 10 mg once a day for 24 weeks added to metformin and gemigliptin in patients with type 2 diabetes (same endpoints, rescue drug)
Assay type: in vivo, human
Method: 1) when Metformin (≥1,000 mg/Day) was Administered at a Constant Dose for at Least 8 Weeks Prior to Pre-Visit (Pre-Screening) • Metformin (≥1,000 mg/day) and gemigliptin (50 mg/day) were co-administered during the 8-week stabilization period. […] 4) when Metformin (≥1,000 mg/Day) and Gemigliptin (50 mg/Day) were Co-Administered at Constant Doses for at Least 8 Weeks Prior to Pre-Visit (Prescreening) • Without a separate stabilization period, Pre-visit (pre-screening) was Visit 1 (screening).
Subjects who met the inclusion/exclusion criteria continued to receive metformin and gemigliptin while receiving a placebo of the clinical trial drug in a single-blind (subject-blinded) state for a 2-week run-in period.
Here, the randomized subjects were stratified according to the administration therapy (co-administration with two or less agents (one or two agents) or three or more agents) of a conventional hypoglycemic agent (before washout of another hypoglycemic agent) within 24 weeks prior to obtaining written informed consent and by an HbA1c value (<8% or ≥8%) at Visit 1 (screening) measured in the central laboratory.
The randomized subjects were administered two tablets of the clinical trial drug corresponding to each administration group once a day, and then visited the institution at weeks 6, 12, 18, and 24 during the 24-week administration period to conduct efficacy and safety assessments. In addition, during the clinical trial period, they were instructed to exercise regularly and control their diet without changing their daily life patterns.
• 1) Change in HbA1c at week 24 after administration of clinical trial drug compared to Visit 2 (randomization)
• 1) Change in HbA1c at each time point of weeks 6, 12, and 18 after administration of clinical trial drug compared to Visit 2 (randomization) • 2) Change in FPG at each time point of weeks 6, 12, 18, and 24 after administration of clinical trial drug compared to Visit 2 (randomization) • 3) Proportion of subjects achieving HbA1c<7% at each time point of weeks 6, 12, 18, and 24 after administration of clinical trial drug • 4) Proportion of subjects achieving HbA1c<6.5% at each time point of weeks 6, 12, 18, and 24 after administration of clinical trial drug • 5) Proportion of subjects achieving therapeutic response (HbA1c change (HbA1c at Visit 2—HbA1c at each evaluation time point)>0.5% or HbA1c<7% at each evaluation time point compared to Visit 2 (randomization)) at each time point of weeks 6, 12, 18, and 24 after administration of clinical trial drug • 6) Proportion of subjects achieving therapeutic response (HbA1c change (HbA1c at Visit 2—HbA1c at each evaluation time point)>0.7% or HbA1c<7% at each evaluation time point compared to Visit 2 (randomization)) at each time point of weeks 6, 12, 18, and 24 after administration of clinical trial drug • 7) Proportion of subjects achieving therapeutic response (HbA1c change (HbA1c at Visit 2—HbA1c at each evaluation time point)>1% or HbA1c<7% at each evaluation time point compared to Visit 2 (randomization)) at each time point of weeks 6, 12, 18, and 24 after administration of clinical trial drug

[1] = week 12, per-protocol set, enavogliflozin 0.3 mg, dapagliflozin 10 mg
[2] = week 18, modified per-protocol set 1, enavogliflozin 0.3 mg vs dapagliflozin 10 mg
[3] = week 18, modified per-protocol set 1, enavogliflozin 0.3 mg, dapagliflozin 10 mg
[4] = week 18, modified per-protocol set 2

OC[C@H]1O[C@@H](c2cc(Cc3ccc(C4CC4)cc3)c(Cl)c3c2CCO3)[C@H](O)[C@@H](O)[C@@H]1O [Enavogliflozin, (2S,3R,4R,5S,6R)-2-(7-chloro-6 (4-cyclopropylbenzyl)-2,3-dihydrobenzofuran-4-yl)-6-(hydroxymethyl)tetrahydro-2H-pyran-3,4,5-triol]
HbA1c, Median [1]: 6.83%
Subjects achieving HbA1c target of <6.5%, (%) [1]: 23.08%
Subjects achieving HbA1c target of <7%, % [1]: 67.52%
body weight, Median [1]: 65.80 kg
Subjects achieving therapeutic glycemic response 1, % (week 12, per-protocol set, response 1 = HbA1c change >0.5% or HbA1c <7%, enavogliflozin 0.3 mg, dapagliflozin 10 mg): 89.74%
Subjects achieving therapeutic glycemic response 2, % (week 12, per-protocol set, response 2 = HbA1c change >0.7% or HbA1c <7%, enavogliflozin 0.3 mg, dapagliflozin 10 mg): 85.47%
Subjects achieving therapeutic glycemic response 3, % (week 12, per-protocol set, response 3 = HbA1c change >1% or HbA1c <7%, enavogliflozin 0.3 mg, dapagliflozin 10 mg): 78.63%
FPG change from baseline, LS mean (SE) (week 18): −27.77(1.63) mg/dL
HDL-C change from baseline, LS mean (SE) (week 18): 3.82(0.64) mg/dL
HOMA-IR change from baseline, LS mean (SE) (week 18): −1.14(0.11)
HOMA-β change from baseline, LS mean (SE) (week 18): 5.97(2.27)
HbA1c change from baseline, LS mean (SE) (week 18): −0.83(0.05) % p
LDL-C change from baseline, LS mean (SE) (week 18): 0.29(1.63) mg/dL
Subjects achieving therapeutic response (HbA1c change >0.5% or HbA1c<7%) (week 18): 82.91%
UACR change from baseline, LS mean (SE) (week 18): −11.08(3.89) g/kg
UGCR change from baseline, LS mean (SE) (week 18): 58.74(2.33) mg/mg
adiponectin change from baseline, LS mean (SE) (week 18): 0.78(0.33) μg/mL
body weight change from baseline, LS mean (SE) (week 18): −3.16(0.24) kg
diastolic blood pressure change from baseline, LS mean (SE) (week 18): −3.41(0.71) mmHg
fasting C-peptide change from baseline, LS mean (SE) (week 18): −0.08(0.02) ng/mL
leptin change from baseline, LS mean (SE) (week 18): −1.46(0.52) ng/ml
systolic blood pressure change from baseline, LS mean (SE) (week 18): −6.82(0.92) mmHg
total cholesterol change from baseline, LS mean (SE) (week 18): 4.27(1.94) mg/dL
triglyceride change from baseline, LS mean (SE) (week 18): −11.64(4.46) mg/dL
FPG change from baseline, LS mean difference (week 18, vs dapagliflozin): -4.22 mg/dL
HDL-C change from baseline, LS mean difference (week 18, vs dapagliflozin): 0.40 mg/dL
HOMA-IR change from baseline, LS mean difference (week 18, vs dapagliflozin): −0.13
HOMA-β change from baseline, LS mean difference (week 18, vs dapagliflozin): 1.48
HbA1c change from baseline, LS mean difference (week 18, vs dapagliflozin): −0.07 % p
LDL-C change from baseline, LS mean difference (week 18, vs dapagliflozin): -1.10 mg/dL
Odds ratio for achieving HbA1c<6.5% (week 18, vs dapagliflozin): 1.20
Odds ratio for achieving HbA1c<7% (week 18, vs dapagliflozin): 1.36
Odds ratio, therapeutic response (HbA1c change >0.5% or HbA1c<7%) (week 18, vs dapagliflozin): 1.02
Odds ratio, therapeutic response (HbA1c change >0.7% or HbA1c<7%) (week 18, vs dapagliflozin): 1.09
Odds ratio, therapeutic response (HbA1c change >1% or HbA1c<7%) (week 18, vs dapagliflozin): 1.22
UACR change from baseline, LS mean difference (week 18, vs dapagliflozin): -2.18 g/kg
UGCR change from baseline, LS mean difference (week 18, vs dapagliflozin): 13.34 mg/mg
adiponectin change from baseline, LS mean difference (week 18, vs dapagliflozin): 0.42 µg/mL
body weight change from baseline, LS mean difference (week 18, vs dapagliflozin): -0.15 kg
diastolic blood pressure change from baseline, LS mean difference (week 18, vs dapagliflozin): −0.99 mmHg
fasting C-peptide change from baseline, LS mean difference (week 18, vs dapagliflozin): -0.02 ng/mL
leptin change from baseline, LS mean difference (week 18, vs dapagliflozin): -0.40 ng/mL
systolic blood pressure change from baseline, LS mean difference (week 18, vs dapagliflozin): −1.66 mmHg
total cholesterol change from baseline, LS mean difference (week 18, vs dapagliflozin): 0.61 mg/dL
triglyceride change from baseline, LS mean difference (week 18, vs dapagliflozin): 0.75 mg/dL
Change from baseline in HDL-C, ANCOVA LS mean difference [2]: 0.40 mg/dL
Change from baseline in LDL-C, ANCOVA LS mean difference [2]: -1.10 mg/dL
Change from baseline in total cholesterol, ANCOVA LS mean difference [2]: 0.61 mg/dL
Change from baseline in triglycerides, ANCOVA LS mean difference [2]: 0.75 mg/dL
Change from baseline in HDL-C, ANCOVA LS mean [3]: 3.82 mg/dL
Change from baseline in HDL-C, Mean [3]: 4.09 mg/dL
Change from baseline in HDL-C, Median [3]: 3.00 mg/dL
Change from baseline in LDL-C, ANCOVA LS mean [3]: 0.29 mg/dL
Change from baseline in LDL-C, Mean [3]: 0.94 mg/dL
Change from baseline in LDL-C, Median [3]: 0.00 mg/dL
Change from baseline in total cholesterol, ANCOVA LS mean [3]: 4.27 mg/dL
Change from baseline in total cholesterol, Mean [3]: 5.06 mg/dL
Change from baseline in total cholesterol, Median [3]: 3.00 mg/dL
Change from baseline in triglycerides, ANCOVA LS mean [3]: -11.64 mg/dL
Change from baseline in triglycerides, Mean [3]: -9.60 mg/dL
Change from baseline in triglycerides, Median [3]: -2.00 mg/dL
Fasting HDL-C, Mean [3]: 50.17 mg/dL
Fasting HDL-C, Median [3]: 49.50 mg/dL
Fasting LDL-C, Mean [3]: 72.10 mg/dL
Fasting LDL-C, Median [3]: 68.00 mg/dL
Fasting total cholesterol, Mean [3]: 139.38 mg/dL
Fasting triglycerides, Mean [3]: 109.52 mg/dL
Fasting triglycerides, Median [3]: 95.50 mg/dL
fasting Total cholesterol, Median [3]: 134.00 mg/dL
Change from baseline in diastolic blood pressure, ANCOVA LS mean [4]: −3.41 mmHg
Change from baseline in diastolic blood pressure, LS mean difference (enavogliflozin − dapagliflozin) [4]: −0.99 mmHg
Change from baseline in diastolic blood pressure, Mean [4]: −4.03 mmHg
